Test in all cases: in vitro antibacterial activity, MIC in microtiter
For assay [1], the system named is E. faecalis clin. isol. (L 502). The format is cell-based, Enterococcus faecalis. The settings on record: Mueller-Hinton, 0.01% bovine serum albumin, 37° C. 18-24 hours. As for the experimental part:
(§1) The in vitro antibacterial activity of the compounds is determined by means of standard […] tests in microtiter. Iso-Sensitest broth (Oxoid) is used for all bacteria except streptococci (Todd-Wewitt broth, Difco) and enterococci (Mueller-Hinton, Difco). Broth cultures are diluted so that the final inoculum is about 5×10^5 cfu/ml (colony forming units per ml). All broth microdilution MICs are performed in the presence of 0.01% bovine serum albumin (Pentax fraction V, Sigma).

For assay [2], the system named is S. epidermidis ATCC 12,228 (L 147). In kind it is cell-based. The settings on record: Iso-Sensitest broth, 0.01% bovine serum albumin, 37° C. 18-24 hours. Here is the method:
as §1

The subject of assay [3] is S. aureus clin. isol. (L 561). In kind it is cell-based. To be noted: Iso-Sensitest broth, 0.01% bovine serum albumin, 37° C. 18-24 hours. Here is the method:
as §1

Assay [4] has as its system Staph. aureus Tour (L 165). The format is cell-based. The settings on record: Iso-Sensitest broth, 0.01% bovine serum albumin, 37° C. 18-24 hours. Here is the method: as §1
Assay [5] relates to Enterococcus faecalis ATCC 7,080 (L 149). In kind it is cell-based. To be noted: Mueller-Hinton, 0.01% bovine serum albumin, 37° C. 18-24 hours. As for the experimental part: as §1
Assay [6] deals with Strep. pneumoniae UC41 (L 44). In kind it is cell-based. To be noted: Todd-Wewitt broth, 0.01% bovine serum albumin, 37° C. 18-24 hours. Here is the method: as §1
Assay [7] concerns S. haemolyticus clin, isol. (L 602). In kind it is cell-based. The settings on record: Iso-Sensitest broth, 0.01% bovine serum albumin, 37° C. 18-24 hours. As for the experimental part:
as §1

The subject of assay [8] is S. epidermidis clin. isol. (L 533). The format is cell-based. The settings on record: Iso-Sensitest broth, 0.01% bovine serum albumin, 37° C. 18-24 hours. As for the experimental part: as §1
Assay [9] has as its system Strep. pyogenes C203 (L 49). The format is cell-based. To be noted: Todd-Wewitt broth, 0.01% bovine serum albumin, 37° C. 18-24 hours. As for the experimental part: as §1
A further assay concerns S. aurens Smith (L 819). In kind it is cell-based. The settings on record: Iso-Sensitest broth, 0.01% bovine serum albumin, 37° C. 18-24 hours. Here is the method:
The in vitro antibacterial activity of the compounds is determined by means of standard […] tests in microtiter. Iso-Sensitest broth (Oxoid) is used for all bacteria except streptococci (Todd-[…] broth, Difco) and enterococci (Mueller-Hinton, Difco). Broth cultures are diluted so that the final inoculum is about 5×10^5 cfu/ml (colony forming units per ml).

≈ marks a conversion by molar mass, not a printed value.

On to “(L-phenylalanyl)^3 -(D-lysyl)^15 -aglucoteicoplanin dalbaheptide methyl ester”, for which the MIC (usually the lowest concentration that inhibits growth of the organism) was 16 µg/mL in assay [1]; 0.13 µg/mL in [2]; 0.06 µg/mL in assay [3]; 0.13 µg/mL in assay [4]; 0.5 µg/mL in assay [5]; 0.13 µg/mL in assay [6]. The MIC amounted to 0.5 µg/mL in assay [7], 0.13 µg/mL in assay [8], 0.25 µg/mL in assay [9] and 0.13 µg/mL against S. aurens Smith (L 819).
In the case of teicoplanin, the MIC in assay [2] came out at 8 µg/mL; in assay [3], 8 µg/mL; in [4] it was 0.13 µg/mL; in assay [5], 0.13 µg/mL; in assay [6], 0.13 µg/mL; in [7], 32 µg/mL. The MIC is 8 µg/mL in assay [8], 0.13 µg/mL in [9] and 0.25 µg/mL in the assay on S. aurens Smith (L 819).
Take `N[C@H]1C(=O)N[C@@H]2Cc3ccc(c(Cl)c3)Oc3cc4cc(c3O)Oc3ccc(cc3Cl)[C@@H](O)[C@@H]3NC(=O)[C@H](NC(=O)[C@@H]4NC(=O)[C@@H](NC2=O)c2cc(O)cc(c2)Oc2cc1ccc2O)c1ccc(O)c(c1)-c1c(O)cc(O)cc1[C@@H](C(=O)O)NC3=O` [teicoplanin aglycon]: the MIC in assay [2] was 0.06 µg/mL (≈ 0.05 µM); in assay [3] it was 0.13 µg/mL (≈ 0.108 µM); in [4] it was 0.13 µg/mL (≈ 0.108 µM); in [5], 0.13 µg/mL (≈ 0.108 µM); in assay [6], 0.13 µg/mL (≈ 0.108 µM); in assay [7] it was 0.25 µg/mL (≈ 0.209 µM). In addition, the MIC in [8] is 0.016 µg/mL (≈ 0.0133 µM); in assay [9], 0.13 µg/mL (≈ 0.108 µM); against S. aurens Smith (L 819), 0.06 µg/mL (≈ 0.05 µM).

For the origin of these results see patent publication US5684127A, “Tetrapeptides deriving from dalbaheptide antibiotics” (Gruppo Lepetit SpA, priority 1995, dated 1997).
